Structures can show the parent of a compound that is named as a salt. Where two headings read alike, the source gives them in different places. Peptide text beside a SMILES is read from it.
What was measured:
Parameters in all cases: species or system AML cell lines (8); Primary HTS, single concentration about 10 uM, Cell Titer Glo viability; log10 luminescence, per cent inhibition relative to cycloheximide control
Settings in all cases: 72 h, relative to cycloheximide control, log10 luminescence, inhibitor
[1] = system: M07e
[2] = system: MOLM-13
[3] = system: U937
[4] = system: MV4-11
[5] = system: CMS
[6] = system: ML-2
[7] = system: CMK
[8] = system: CHRF288-11

SMILES	M07e %inh [1] [%]	MOLM-13 %inh [2] [%]	U937 %inh [3] [%]	MV4-11 %inh [4] [%]	CMS %inh [5] [%]	ML-2 %inh [6] [%]	CMK %inh [7] [%]	CHRF288-11 %inh [8] [%]	M07e %inh ([1]; M07e %inh, 10 µM) [%]	MOLM-13 %inh ([2]; MOLM-13 %inh, 10 µM) [%]	U937 %inh ([3]; U937 %inh, 10 µM) [%]	MV4-11 %inh ([4]; MV4-11 %inh, 10 µM) [%]	CMS %inh ([5]; CMS %inh, 10 µM) [%]	ML-2 %inh ([6]; ML-2 %inh, 10 µM) [%]	CMK %inh ([7]; CMK %inh, 10 µM) [%]	CHRF288-11 %inh ([8]; CHRF288-11 %inh, 10 µM) [%]
COc1cc2c(cc1OC)C(=O)C(CC1CCN(Cc3ccccc3)CC1)C2 (centres unmarked) [SJ000555704-1, DONEPEZIL HYDROCHLORIDE]	3.462	1.714	1.153	4.602	6.718	0.002244	10.45	3.237								
C[C@]12C=CC(=O)C=C1CC[C@@H]1[C@@H]2[C@@H](O)C[C@@]2(C)[C@H]1CC[C@]2(O)C(=O)COP(=O)(O)O [SJ000555709-1, PREDNISOLONE SODIUM PHOSPHATE]	-1.037	2.036	2.195	1.456	9.04	-0.8263	1.948	1.976								
Cc1nnc(C(C)C)n1[C@@H]1C[C@H]2CC[C@@H](C1)N2CC[C@H](NC(=O)C1CCC(F)(F)CC1)c1ccccc1 [SJ000555710-1, MARAVIROC]	0.2532	-2.386	-1.411	0.334	-2.259	-1.344	-4.287	3.241								
CC[C@@H]([C@H](C)O)n1ncn(-c2ccc(N3CCN(c4ccc(OC[C@@H]5CO[C@@](Cn6cncn6)(c6ccc(F)cc6F)C5)cc4)CC3)cc2)c1=O [SJ000555711-1, POSACONAZOLE]	-0.5919	-0.6762	4.703	1.133	1.852	-0.9552	-1.399	4.654								
CCOC(=O)C1=C[C@@H](OC(CC)CC)[C@H](NC(C)=O)[C@@H](N)C1 [SJ000555712-1, OSELTAMIVIR PHOSPHATE]	-1.677	-1.922	-0.7037	-1.699	1.863	3.111	1.207	-4.38								
CC(=O)O[C@H]1C[C@@H]2CC[C@@H]3[C@H](CC[C@@]4(C)[C@H]3C[C@H](N3CC[N+](C)(C)CC3)[C@@H]4OC(C)=O)[C@@]2(C)C[C@@H]1N1CC[N+](C)(C)CC1 [SJ000555714-1, PIPECURIUM BROMIDE]	-1.4	-1.447	-1.326	0.2738	0.5876	0.08837	-9.103	-2.142								
CC[N+](C)(CC)CCOC(=O)C(O)(c1ccccc1)C1CCCCC1 (centres unmarked) [SJ000555718-1, OXYPHENONIUM BROMIDE]	-3.166	7.019	4.807	4.785	-0.491	3.325	0.4248	89.25								
CC(C)(C)C(=O)Oc1ccc(S(=O)(=O)Nc2ccccc2C(=O)NCC(=O)O)cc1 [SJ000556638-2, SIVELESTAT SODIUM SALT]									0.385	-1.5	-0.4301	2.862	2.093	1.02	-3.181	2.891
CC(C)(C)C(=O)Oc1ccc(S(=O)(=O)Nc2ccccc2C(=O)NCC(=O)O)cc1 [SJ000556638-3, SIVELESTAT SODIUM SALT]									0.5204	-1.044	-0.2709	-1.916	-1.314	0.7785	-2.417	-1.426
Cc1ccc(Nc2nccc(N(C)c3ccc4c(C)n(C)nc4c3)n2)cc1S(N)(=O)=O [SJ000556680-2, PAZOPANIB | 786034 | GSK-786034 | GW-786034 | GW-786034B | PAZOPANIB HCL (GW786034 HCL)]	33.41	85.38	10.79	69.1	28.45	7.239	114.3	59.62								
C/C(O)=C(\C#N)C(=O)Nc1ccc(C(F)(F)F)cc1 [SJ000556684-2, TERIFLUNOMIDE]	0.1279	8.514	-0.6256	2.233	4.451	6.049	2.602	13.26								
Cc1[nH]c(/C=C2\C(=O)Nc3ccccc32)c(C)c1CCC(=O)O [SJ000556685-2, ORANTINIB | SU-6668 | TSU-68 | TSU-68 (SU6668, ORANTINIB)]	0.796	33.6	4.629	14.82	12.46	2.987	1.601	14.71								
CN(C(=O)c1cc2ccccc2cc1C(=O)C(c1cccc2ccccc12)P(=O)(O)O)C1CCN(C(=O)c2ccccc2)CC1 (centres unmarked) [SJ000556691-1, CATHEPSIN G INHIBITOR I]	0.0007022	0.5105	-1.516	1.483	2.107	0.3338	10.35	9.27								
CO[C@@H]1[C@H](OC(=O)/C=C/C=C/C=C/C=C/C(=O)O)CC[C@]2(CO2)[C@H]1[C@@]1(C)O[C@@H]1CC=C(C)C [SJ000556696-1, FUMAGILLIN]									2.083	6.124	19.23	13.12	10.64	2.951	-0.5821	12.42
CO[C@@H]1[C@H](OC(=O)/C=C/C=C/C=C/C=C/C(=O)O)CC[C@]2(CO2)[C@H]1[C@@]1(C)O[C@@H]1CC=C(C)C [SJ000556696-2, FUMAGILLIN]									1.679	10.06	20.26	9.134	7.757	3.251	-0.114	24.31
CC(C)C[C@H](N)C(=O)N[C@H](C(=O)N[C@H](C(=O)N[C@@H](Cc1ccc(O)cc1)C(=O)N1CCC[C@H]1C(=O)N[C@@H](Cc1c[nH]c2ccccc12)C(=O)N[C@H](C(=O)O)[C@@H](C)O)C(C)C)C(C)C [SJ000556698-1, SPINORPHIN] (H-LVVYPWT-OH)	-3.453	-0.8143	0.1872	-0.248	4.762	-1.792	0.1545	-1.007								
COc1ccc(S(=O)(=O)N2CCN(C(=O)c3ccc(-c4ccccc4)cc3)CC2C(=O)NO)cc1 (centres unmarked) [SJ000556700-1, N-HYDROXY-1-(4-METHOXYPHENYL)SULFONYL-4-(4-BIPHENYLCARBONYL)PIPERAZINE-2-CARBOXAMIDE]	105.4	33.07	72.9	72.89	90.96	62.36	129.1	142.9								
C[C@@H]1CN(c2c(F)c(N)c3c(=O)c(C(=O)O)cn(C4CC4)c3c2F)C[C@H](C)N1 [SJ000556731-1, SPARFLOXACIN]									-0.05975	-3.504	1.66	7.588	-1.257	2.718	-4.344	-1.018
C[C@@H]1CN(c2c(F)c(N)c3c(=O)c(C(=O)O)cn(C4CC4)c3c2F)C[C@H](C)N1 [SJ000556731-2, SPARFLOXACIN]									-2.464	6.829	3.77	1.115	-0.1151	2.462	6.161	0.9037

— PMC6522510 (Nature Communications, 2019)
